# From PMC6015718, “Effect of Polyvalence on the Antibacterial Activity of a Synthetic Peptide Derived from Bovine Lactoferricin against Healthcare-Associated Infectious Pathogens” (BioMed Research International, 2018)
# Where two headings read alike, the source gives them in different places. Positions of bridges follow the written chain, without caps; N, C: chain ends. Non-standard residues stand in square brackets, D forms with d. Residues, ends and D or L forms follow the SMILES beside them. Chains are numbered I, II in the order given. No end group written: not given here. Ahx = NCCCCCC(=O)O
# How the values were obtained:
# Format in all cases: cell-based
# [1] = system: Klebsiella pneumoniae ATCC 13883 (sensitive)
# Source text: (§1) All microorganisms were purchased from the American Type Culture Collection (ATCC). To determine the antibacterial activity of synthetic peptides against HCAI bacteria, the Staphylococcus aureus strains ATCC 25923 and ATCC 33591 were employed as sensitive and resistant strains, respectively, of a Gram-positive microorganisms species, and Klebsiella pneumoniae ATCC 13883 and ATCC 700603 as sensitive and resistant strains of a Gram-negative species.
# (§2) To determine the MBC, an aliquot from each well of the MIC assay was spread onto MHA. After 18 h at 37°C, the concentration that inhibited bacterial growth was determined. Each of these tests was performed four times. MBC was defined as the lowest concentration of peptide that reduced the number of bacteria by 99.9% in vitro [12].
# [2] = system: Klebsiella pneumoniae ATCC 700603 (resistant)
# Source text: as §1, §2
# [3] = system: Staphylococcus aureus ATCC 25923 (sensitive)
# Source text: as §1, §2
# [4] = system: human erythrocytes; assay: Haemolytic activity; conditions: 6.25-100 μM peptide; human erythrocytes 2% haematocrit in PBS, 2 h 37°C, OD492; n = 2
# Method: Human erythrocytes collected from the blood samples of healthy humans were harvested by centrifugation for 7 min at 162 ×g and washed three times in phosphate-buffered saline (PBS). The erythrocytes (2% haematocrit in PBS) were incubated with peptide molecules at several concentrations (6.25, 12.5, 25, 50, and 100 μM), for 2 h at 37°C. PBS was used as a negative control, and sterile distilled water was used as a positive control for haemolysis (100% of haemolysis). The plate was subsequently centrifuged at 1459 ×g for 10 min at 4°C. Aliquots of the supernatants of each well (75 μL) were carefully transferred to a new sterile 96-well plate, and haemolytic activity was evaluated by measuring the OD492 using an Asys Expert Plus Microplate reader. The experiments were performed in duplicate, and peptide haemolysis activity was calculated.
# Lastly, to evaluate the effects of the peptides on normal human erythrocytes, their haemolysis activity was investigated (Figure 6). The percentage of haemolytic activity on human red blood cells after 2 hours was determined via the standard microtitre dilution method. The peptide concentration is reported as μM.
# [5] = system: Klebsiella pneumoniae ATCC 13883 (sensitive); remark: listed apart in the source
# Source text: as §1
# (§3) The antibacterial activity assay for peptides and controls was performed according to the National Committee for Clinical Laboratory Standards method M7-A7 [11]. MIC and MBC values were determined using a broth microdilution and growth inhibition method with some modification. Briefly, MIC assays were performed by liquid inhibition growth assay in an untreated sterile 96-well flat-bottom tissue culture plate. Bacteria were cultured overnight on Mueller-Hinton agar (MHA). Three colonies were transferred to 8 mL of Mueller-Hinton broth (MHB) and incubated at 37°C until the mid-exponential phase of growth. The turbidity of the cultures was measured and adjusted spectrophotometrically to McFarland standard 0.5, then diluted to a final concentration of […]. Synthetic antibacterial peptide candidate stock solutions were diluted to final concentrations per well of 200, 100, 50, 25, 12.5, and 6.25 μM. […]
# (§4) Wells containing MHB with bacterial inoculum only served as bacterial growth controls. Additional controls included MHB alone and MHB with ciprofloxacin (CIP) (2 μg/mL) and bacteria as a positive control. The microplate was incubated for 24 h at 37°C, and growth inhibition was examined by monitoring the optical density at 620 nm (OD620). MIC was defined as the lowest peptide concentration that inhibited bacteria growth >90%.
# [6] = system: Klebsiella pneumoniae ATCC 700603 (resistant); remark: listed apart in the source
# Source text: as §1, §3, §4
# [7] = system: Staphylococcus aureus ATCC 25923 (sensitive); remark: listed apart in the source
# Source text: as §1, §3, §4
# [8] = system: Staphylococcus aureus ATCC 33591 (resistant)
# Source text: as §1, §3, §4
# [9] = system: Staphylococcus aureus ATCC 33591 (resistant); remark: listed apart in the source
# Source text: as §1, §2
molecule,measurement,setting,value
RRWQWR-NH2 [Motif],MBC,"[1]; ATCC 13883, 18 h",> 200 µM
same,MBC,"[2]; ATCC 700603, 18 h",> 200 µM
same,MBC,"[3]; ATCC 25923, 18 h",> 200 µM
same,haemolysis activity over the concentrations tested,[4],no haemolysis activity
"N=C(N)NCCC[C@H](NC(=O)[C@H](Cc1c[nH]c2ccccc12)NC(=O)[C@H](CCC(N)=O)NC(=O)[C@H](Cc1c[nH]c2ccccc12)NC(=O)[C@H](CCCNC(=N)N)NC(=O)[C@@H](N)CCCNC(=N)N)C(=O)NCCCC[C@H](NC(=O)[C@H](CCCNC(=N)N)NC(=O)[C@H](Cc1c[nH]c2ccccc12)NC(=O)[C@H](CCC(N)=O)NC(=O)[C@H](Cc1c[nH]c2ccccc12)NC(=O)[C@H](CCCNC(=N)N)NC(=O)[C@@H](N)CCCNC(=N)N)C(=O)NCCCCCC(=O)N[C@@H](CSSC[C@H](NC(=O)CCCCCNC(=O)[C@H](CCCCNC(=O)[C@H](CCCNC(=N)N)NC(=O)[C@H](Cc1c[nH]c2ccccc12)NC(=O)[C@H](CCC(N)=O)NC(=O)[C@H](Cc1c[nH]c2ccccc12)NC(=O)[C@H](CCCNC(=N)N)NC(=O)[C@@H](N)CCCNC(=N)N)NC(=O)[C@H](CCCNC(=N)N)NC(=O)[C@H](Cc1c[nH]c2ccccc12)NC(=O)[C@H](CCC(N)=O)NC(=O)[C@H](Cc1c[nH]c2ccccc12)NC(=O)[C@H](CCCNC(=N)N)NC(=O)[C@@H](N)CCCNC(=N)N)C(N)=O)C(N)=O [Tetrameric] (I: H-RRWQWRK[Ahx]C-NH2 / II: H-RRWQWRK[Ahx]C-NH2 / III: H-RRWQWR / IV: H-RRWQWR; amide I:7-III:C, II:7-IV:C; disulfide I:9-II:9)",MIC,"[5]; ATCC 13883, 24 h",6.25 µM
same,MIC,"[5]; K. pneumoniae ATCC 13883 sensitive, MHB, 24 h 37°C, OD620, >90% inhibition, average of four independent experiments in duplicate",29 µg/mL
same,MIC,"[5]; K. pneumoniae ATCC 13883 sensitive, MHB, 24 h 37°C, OD620, >90% inhibition, average of four independent experiments in duplicate, listed as tetrameric",≥ 29 µg/mL
same,MIC,"[5]; K. pneumoniae ATCC 13883 sensitive, value in parentheses, MHB, 24 h 37°C, OD620, >90% inhibition","≥ 6,25 µM"
same,MIC,"[6]; ATCC 700603, 24 h",12.5 µM
same,MIC,"[6]; K. pneumoniae ATCC 700603 resistant, MHB, 24 h 37°C, OD620, >90% inhibition, average of four independent experiments in duplicate",57 µg/mL
same,MIC,"[6]; K. pneumoniae ATCC 700603 resistant, MHB, 24 h 37°C, OD620, >90% inhibition, average of four independent experiments in duplicate, listed as tetrameric",≥ 57 µg/mL
same,MIC,"[6]; K. pneumoniae ATCC 700603 resistant, value in parentheses, MHB, 24 h 37°C, OD620, >90% inhibition","≥ 12,5 µM"
same,MIC,"[7]; ATCC 25923, 24 h",6.25 µM
same,MIC,"[7]; S. aureus ATCC 25923 sensitive, MHB, 24 h 37°C, OD620, lowest concentration inhibiting growth >90%, average of four independent experiments in duplicate",29 µg/mL
same,MIC,"[7]; S. aureus ATCC 25923 sensitive, MHB, 24 h 37°C, OD620, lowest concentration inhibiting growth >90%, average of four independent experiments in duplicate, listed as tetrameric",≥ 29 µg/mL
same,MIC,"[7]; S. aureus ATCC 25923 sensitive, value in parentheses, MHB, 24 h 37°C, OD620, >90% inhibition, average of four independent experiments in duplicate",≥ 6.25 µM
same,concentration at which antibacterial activity was displayed (dose-response profile),"[7]; S. aureus sensitive strain, Figure 2",≥ 29 µg/mL
same,MIC,"[8]; ATCC 33591, 24 h",12.5 µM
same,MIC,"[8]; S. aureus ATCC 33591 resistant, MHB, 24 h 37°C, OD620, >90% inhibition, average of four independent experiments in duplicate",57 µg/mL
same,MIC,"[8]; S. aureus ATCC 33591 resistant, MHB, 24 h 37°C, OD620, >90% inhibition, average of four independent experiments in duplicate, listed as tetrameric",≥ 57 µg/mL
same,MIC,"[8]; S. aureus ATCC 33591 resistant, value in parentheses, MHB, 24 h 37°C, OD620, >90% inhibition",≥ 12.5 µM
same,MBC,"[1]; ATCC 13883, 18 h",25 µM
same,MBC,"[1]; K. pneumoniae ATCC 13883 sensitive, MHA, 18 h 37°C, 99.9% reduction",115 µg/mL
same,MBC,"[1]; K. pneumoniae ATCC 13883 sensitive, MHA, 18 h 37°C, 99.9% reduction, listed as tetrameric",≥ 115 µg/mL
same,MBC,"[1]; K. pneumoniae ATCC 13883 sensitive, value in parentheses, MHA, 18 h 37°C, 99.9% reduction",≥ 25 µM
same,MBC as a function of the MBC of the tetrameric peptide,"[1]; K. pneumoniae sensitive strain, from concentrations in μg/mL",1 x MBC
same,MBC,"[2]; ATCC 700603, 18 h",25 µM
same,MBC,"[2]; K. pneumoniae ATCC 700603 resistant, MHA, 18 h 37°C, 99.9% reduction",115 µg/mL
same,MBC,"[2]; K. pneumoniae ATCC 700603 resistant, MHA, 18 h 37°C, 99.9% reduction, listed as tetrameric",≥ 115 µg/mL
same,MBC,"[2]; K. pneumoniae ATCC 700603 resistant, value in parentheses, MHA, 18 h 37°C, 99.9% reduction",≥ 25 µM
same,MBC as a function of the MBC of the tetrameric peptide,"[2]; K. pneumoniae resistant strain, from concentrations in μg/mL",1 x MBC
same,MBC,"[3]; ATCC 25923, 18 h",12.5 µM
same,MBC,"[3]; S. aureus ATCC 25923 sensitive, MHA, 18 h 37°C, 99.9% reduction, average of four independent experiments",57 µg/mL
same,MBC,"[3]; S. aureus ATCC 25923 sensitive, MHA, 18 h 37°C, 99.9% reduction, average of four independent experiments, listed as tetrameric",≥ 57 µg/mL
same,MBC,"[3]; S. aureus ATCC 25923 sensitive, value in parentheses, MHA, 18 h 37°C, 99.9% reduction",≥ 12.5 µM
same,MBC as a function of the MBC of the tetrameric peptide,"[3]; S. aureus sensitive strain, from concentrations in μg/mL",1 x MBC
same,MBC,"[9]; ATCC 33591, 18 h",12.5 µM
same,MBC,"[9]; S. aureus ATCC 33591 resistant, MHA, 18 h 37°C, 99.9% reduction",57 µg/mL
same,MBC,"[9]; S. aureus ATCC 33591 resistant, MHA, 18 h 37°C, 99.9% reduction, listed as tetrameric",≥ 57 µg/mL
same,MBC,"[9]; S. aureus ATCC 33591 resistant, value in parentheses, MHA, 18 h 37°C, 99.9% reduction",≥ 12.5 µM
same,MBC as a function of the MBC of the tetrameric peptide,"[9]; S. aureus resistant strain, from concentrations in μg/mL",1 x MBC
